{"source": "patent US20170325481A1", "about": "“METHOD OF FORMING ENCAPSULATED COMPOSITIONS WITH ENHANCED SOLUBILITY AND STABILITY” (KEMIN INDUSTRIES, INC., priority 2011, published 2017)", "origin": "cited, not measured here", "settings": "multiple nanosize emulsions, 4 weeks of storage at 50° C.", "data": [{"smiles": "CC1=C(/C=C/C(C)=C/C=C/C(C)=C/C=C/C=C(C)/C=C/C=C(C)/C=C/C2=C(C)CCCC2(C)C)C(C)(C)CCC1", "note": "[β-carotene]", "values": [{"measurement": "β-carotene left after storage", "result": 32.3, "unit": "%"}]}]}
